Results: patent US11617740B2, “Chemical inhibitors of Mycobacterium tuberculosis DosRST signaling and persistence” (priority 2017, dated 2023)
Values joined by “and” are separate entries in the source; they are usually repeats but may differ in a detail not shown here. Equal values may be shown once. “Also recorded” adds a separate entry of the source.

Key:
WT DosS heme [1] = target: T1, WT DosS heme (Mycobacterium tuberculosis, UniProt P9WGK3); experiment: UV-visible spectroscopy of DosS heme; assay type: biochemical; details: for position of DosS Soret peak after treatment: DTN-reduced DosS (430 nm), 100 μM
WT DosS heme [2] = target: T1, WT DosS heme; details: identical conditions, gradual shift to oxidized state; cited from earlier work
DosR regulon = assay type: cell-based; details: ΔdosR mutant, 40 μM, >2-fold; q<0.05
DosS(E87L) = DosS(E87L) (Mycobacterium tuberculosis, UniProt P9WGK3, E87L); assay type: biochemical
DosS(G117L) = DosS(G117L) (Mycobacterium tuberculosis, UniProt P9WGK3, G117L); assay type: biochemical

Row | SMILES | position of DosS Soret peak after treatment (WT DosS heme [1]) | genes downregulated in CDC1551(ΔdosR) background (DosR regulon) [genes] | further results
1 | [C-]#[O+] [CO, carbon monoxide, reference compound] | 422 nm | – | –
2 | [C-]#[O+].[C-]#[O+].[C-]#[O+].[C-]#[O+].[C-]#[O+].[C-]#[O+].[Cl][Ru][Cl].[Cl][Ru][Cl] [CORM-2, tricarbonylchlororuthenium(II) dimer, reference compound] | 422 nm | – | –
3 | C[C@@H]1CC[C@H]2[C@@H](C)C(=O)O[C@@H]3O[C@@]4(C)CC[C@@H]1[C@]32OO4 [artemisinin, reference compound] | – | – | position of DosS Soret peak after treatment (earlier work) (WT DosS heme [2]): 403 nm
4 | O=C(Nc1ccno1)Nc1ccc(Cl)cc1Cl [HC106A] | 422 nm and ~420 nm | 51 | change of DosS E87L UV-visible spectrum (DosS(E87L)): no change on overall spectrum; position of DosS(E87L) Soret peak after treatment (DosS(E87L)): 422 nm; change of DosS(G117L) UV-visible spectrum (DosS(G117L)): no change to the overall spectrum; also recorded: did not change; also recorded: promoted HC106A resistance
5 | CN(C)CCCN1C(=O)c2cccc3c(Br)ccc(c23)C1=O [HC104A] | – | 171 | effect on DosS UV-visible spectrum / heme redox (WT DosS heme [1]; DTN-reduced DosS, 400 μM HC104A): no change; also recorded: inhibitory activity was not observed; also recorded: no impact on the position of the Soret peak
